Results as given in patent publication US5162499A, “Synthetic peptides for the treatment of AIDS” (Heterocyclic Research, Inc., priority 1991, dated 1992).

Tests used:
Human monocytes = assay: Chemotaxis assay (monocyte migration in agarose plates); assay type: cell-based; parameters: key: (cells migrating to attractant − cells migrating to buffer)/10
Description: Briefly, monocyte migration is directly observed in a chemotaxis chamber.
A comparative study comparing the chemotactic activity of the peptides of the invention with the chemotactic activity of peptide T (C. B. Pert et al., Proc. Natl. Acad. Sci., Vol. 83, pp. 9254-9258, 1986) was undertaken. […] Human monocytes were obtained by the known technique of layering heparinized blood on FICOLL-HYPAQUE differential dentrifugation medium in a centrifuge tube and spinning to separate the red blood cells from plasma and the monolayered monocytes. The monocytes were pipetted off and then washed with physiological saline.
The agarose plates were also prepared in accordance with conventional methods. Agarose type II (0.4 g), available from Sigma Chemical, and LITEX gelatin (0.3 g) were combined and heated until the gelatin was thoroughly dissolved. RMPI-HANK buffer (4 ml), distilled water (15.2 ml) and saturated NaHCO3 solution (0.8 ml) were then added to the agarose gelatin and mixed to homogeneity. 5 ml aliquots of the resulting solution were poured into plastic petri dishes (FALCON 55 mm) and allowed to gel. After the agarose has sufficiently hardened, wells, 3 mm in diameter were cut in the agarose, such that each dish had six rows of wells radiating from the center of the dish, each row containing three wells spaced apart by a distance of 3 mm. Thus, each plate was used to assay two test samples in triplicate. 8 ul of the test peptide (in 120 mM HEPES buffer) was placed on the outermost well, 8 ul of monocyte cell solution was placed in the center well and 8 ul of RPMI-HANKS buffer was placed in the innermost well. The migration of monocytes was visually observed and the number of migrating cells was determined. A chemotactic index was calculated as the number of cells which migrated toward the attractant, i.e., test peptide or control, less the number of cells that migrated towards the buffer divided by 10. Formyl-Met-Leu-Phe (FMLP) and (D-Ala)Peptide-T were used as positive control and HEPES buffer and Leu-Gly-Gly were used as negative controls.

[1] = system: binding of HIV to T4 cells; conditions: reported by Pert et al., PNAS 1986; cited from earlier work
[2] = attractant concentration 10^-9 M
[3] = attractant concentration 10^-10 M
[4] = attractant concentration 10^-11 M

Substance | Chemotactic Index (Human monocytes; [2]) | Chemotactic Index (Human monocytes; [3]) | Chemotactic Index (Human monocytes; [4]) | Blocking of the binding of HIV to T4 cells (in words) [1]
ALA--SER--SER--SER--ASN--TYR--MET (ASSSNYM; printed: ALA--SER--SER--SER--ASN--TYR--MET) [Example 6, linear heptapeptide] | 4.9 | 4.7 | 5.1 | 
Ala-Ser-Thr-Thr-Thr-Asn-Tyr-Thr [peptide T] |  |  |  | block the binding of HIV to T4 cells
H-SER-SER-ASN-TYR-MET (SSNYM; printed: SER-SER-ASN-TYR-MET) [Example 8, linear pentapeptide] | 5.0 | 4.8 | 6.0 | 
SER--SER--SER--ASN--TYR--MET (SSSNYM; printed: SER--SER--SER--ASN--TYR--MET) [Example 7, linear hexapeptide] | 4.6 | 5.1 | 5.3 | 
